Data set [1] concerns the target T1, mushroom tyrosinase (mTyr) (Agaricus bisporus, UniProt C7FF04). Description: Inhibitory activity assay on mTyr with L-tyrosine as substrate. As to conditions: for Concentration at maximum inhibition rate: second figure of the cell rate/concentration. The class given is biochemical. The method, then:
The synthesized hydroquinone ester derivatives were dissolved in 3% dimethyl sulfoxide (DMSO) solution and then diluted with phosphate-buffered solution (PBS, pH 6.86, 100 mM) to obtain different concentrations. […] The plate was incubated at 37 °C for 30 minutes, after which 20 μL of L-tyrosine solution (1 mM) was added and mixed. The absorbance at a wavelength of 475 nm was measured using a SpectraMax 190 microplate reader (MolecularDevices, USA) continuously for 30 minutes. PBS was used as a blank control, and kojic acid was used as a positive control.

In data set [2] the target is T1, mushroom tyrosinase (mTyr). Description: Inhibition reversibility and type assay (Lineweaver–Burk kinetics) on mTyr. Type of data set: biochemical. As to conditions: for Inhibition type: Lineweaver–Burk plots, 300 U/mL mTyr, varying L-tyrosine. As for the experimental part:
The methodology for evaluating the reversibility of inhibition and the inhibition type of the compounds on mTyr closely parallels the procedure outlined in the inhibitory activity assay of compounds on mTyr.
For the evaluation of inhibition reversibility, a constant concentration of 1 mM L-tyrosine was employed. […] The absorption was measured to determine the initial enzymatic reaction rate corresponding to each enzyme concentration. Specifically, the initial enzymatic reaction rate was calculated by subtracting the initial absorbance from the absorbance recorded at a specific time and then dividing the result by the corresponding time interval.[32] Subsequently, the collected data were plotted on a scatter plot, with the initial enzymatic reaction rate represented on the Y-axis and the enzyme concentration on the X-axis. In cases of reversibility, this will result in fitting a set of straight lines passing through the origin. Conversely, when reversibility was absent, a set of parallel lines emerged as the fit.[33]
In order to investigate the inhibition type, a final concentration of 300 U per mL mTyr was employed, accompanied by varying concentrations of L-tyrosine. The enzymatic reaction rate was evaluated for different concentrations of compounds 3a–3e. Subsequently, the ΔOD475 values were plotted against the L-tyrosine concentration using the Lineweaver–Burk equation, allowing for the creation of double reciprocal plots.

The target of data set [3] is T1, mushroom tyrosinase (mTyr). The conditions noted are these: read-out: IC50 for inhibiting mTyr activity; literature value; ref [15]; cited from earlier work.
Data set [4] deals with human epidermal melanoma A375 cells. Put plainly: CCK-8 cell proliferation and cytotoxicity assay, A375 cells. Type of data set: cell-based. The method, then: (§1) Cell proliferation and cytotoxicity assays were performed using the CCK-8 on Human Epidermal Melanoma A375 and HaCaT cells. Initially, the cells were seeded in 96-well plates at a density of 4 × 10^4 cells per well and incubated for 24 hours at 37 °C with 5% CO2 in a humidified incubator. Each treatment was conducted in six duplicate wells. Various concentrations of the tested compounds were added to the wells, and the cells were further incubated for 72 hours. After the incubation period, CCK-8 solution was added to each well and incubated for an additional 2 hours. The absorbance of each well at 450 nm was measured using an absorbance microplate reader (BioTek ELx800, USA). Negative controls with cells treated with distilled water and positive controls with cells were treated with 10 μg mL^−1 taxol was included in the assay. The percentage of cell growth inhibition was calculated using eqn (2).2 [drawing 1] where G1 represents the absorbance of a mixture containing cells, medium, and CCK8, G2 represents the absorbance of absorbance of a mixture containing cells, medium, CCK8, and the test compound; G3 represents a mixture containing medium and CCK8.
(§2) Cell growth and morphology were observed using an inverted microscope (Olympus IX51, Japan). The experiments were conducted in triplicate to ensure accuracy and consistency of results.

Data set [5] deals with human immortalized keratinocyte (HaCaT) non-tumor cells. Description: CCK-8 cell proliferation and cytotoxicity assay, HaCaT cells. Type of data set: cell-based. The method, then:
as §1, §2

[6] abbreviates: substrate L-tyrosine, read-out: IC50 for inhibiting mTyr activity.

“Also recorded” adds a separate entry of the source. Like-named read-outs stand apart in the source and are kept apart here.

T1 sequence (C7FF04 1-392): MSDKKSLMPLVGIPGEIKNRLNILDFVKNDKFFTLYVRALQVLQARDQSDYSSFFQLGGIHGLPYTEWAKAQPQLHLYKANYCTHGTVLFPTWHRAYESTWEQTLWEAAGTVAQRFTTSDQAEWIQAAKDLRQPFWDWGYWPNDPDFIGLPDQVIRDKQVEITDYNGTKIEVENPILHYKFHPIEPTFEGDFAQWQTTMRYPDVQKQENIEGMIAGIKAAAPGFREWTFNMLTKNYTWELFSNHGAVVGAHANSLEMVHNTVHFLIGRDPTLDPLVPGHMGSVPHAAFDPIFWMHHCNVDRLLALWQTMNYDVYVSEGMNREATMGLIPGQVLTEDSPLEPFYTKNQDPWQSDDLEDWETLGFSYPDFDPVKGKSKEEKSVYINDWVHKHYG

With `O=C(O)C=Cc1ccc(O)cc1` [4-Hydroxycinnamic acid, 4-hydroxycinnamic acid, reference compound], in data set [1], the IC50 is 16.4 ± 5.42 µM and the “Concentration at maximum inhibition rate” value is 50 µM.
Molecule `O=C(Oc1ccc(OC(=O)c2ccc(F)cc2)cc1)c1ccc(F)cc1` [Compound 3f, 1,4-phenylene bis(4-fluorobenzoate)] had a melting point of 196 to 198 °C. In data set [1], the “Concentration at maximum inhibition rate” value stood at 100 µM. In data set [1] (setting [6]), the IC50 came to 54.2 ± 8.65 µM.
Molecule `O=C(/C=C/c1ccc(O)cc1)Oc1ccc(O)cc1` [Compound 3a, 4-hydroxyphenyl (2E)-3-(4-hydroxyphenyl) prop-2-enoate] displayed a melting point of 217 to 220 °C. Also, the Inhibition type result in data set [2] was “Noncompetitive; also recorded: non-competitive inhibition; also recorded: non-competitive inhibitors”. In data set [2] (compound concentration 5 μM), the “maximum reaction rate (Vm) of mTyr” value is 0.4272 ×103, min-1. Moreover, the “maximum reaction rate (Vm) of mTyr” value in data set [2] (compound concentration 10 μM) is listed as 0.2843 ×103, min-1. Moreover, in data set [2] (compound concentration 20 μM), the “maximum reaction rate (Vm) of mTyr” value was 0.1836 ×103, min-1. In addition, the “Concentration at maximum inhibition rate” value in data set [1] was 10 µM. The IC50 in data set [1] (setting [6]) stood at 1.75 ± 0.02 µM.
In the case of `O=C(O)/C=C/c1ccccc1` [Cinnamic acid, cinnamic acid], the IC50 in data set [3] is 201 ± 5.3 µM.
In turn, `O=C(C=Cc1ccccc1)Oc1ccc(O)cc1` [Compound 3b, 4-hydroxyphenyl cinnamate] returned a melting point of 171 to 173 °C. For the same molecule, the Inhibition type entry in data set [2] is reported as “Mix-noncompetitive; also recorded: mixed-type inhibition”. Also, the “maximum reaction rate (Vm) of mTyr” value in data set [2] (compound concentration 1 μM) is reported as 0.7572 ×103, min-1. Besides, in data set [2] (compound concentration 2 μM), the “maximum reaction rate (Vm) of mTyr” value was 0.3461 ×103, min-1. Also, the “maximum reaction rate (Vm) of mTyr” value in data set [2] (compound concentration 4 μM) was 0.2145 ×103, min-1. The Ki in data set [2] (read-out: free enzyme inhibition constant (KI)) is 1.88 µM. Moreover, the “mTyr–substrate complex inhibition constant (KIS)” value in data set [2] (secondary plots, mixed-type inhibition) is 0.3395 µM. The inhibition at 50 µM in data set [4] (A-375, 50 μM, read-out: inhibition rate on A375 cells) was determined as 60.9%. In addition, the IC50 in data set [4] (A-375, 72 hours, CCK-8, read-out: IC50 against A375 cells) worked out at 40.8 µM. The “Concentration at maximum inhibition rate” value in data set [1] was 2.5 µM. Also, the IC50 in data set [1] (setting [6]) was 0.18 ± 0.06 µM. For the same molecule, in data set [5] (Homo sapiens, HaCaT, 50 μM, read-out: inhibition rate on HaCaT cells), the inhibition at 50 µM came out at 9.09%. Also, the IC50 in data set [5] (Homo sapiens, HaCaT, 72 hours, CCK-8, read-out: IC50 against HaCaT cells) was 169 µM. The “inhibition rate on HaCaT cells” value in data set [5] (concentration range 3.125–25 μM) is given as “below 5%”.
In turn, `O=C(CCc1ccccc1)Oc1ccc(O)cc1` [Compound 3c, 4-hydroxyphenyl 3-phenylpropanoate] returned a melting point of 149 to 151 °C. The Inhibition type result in data set [2] was “Noncompetitive; also recorded: non-competitive inhibition; also recorded: non-competitive inhibitors”. In addition, the “maximum reaction rate (Vm) of mTyr” value in data set [2] (compound concentration 5 μM) is reported as 0.6327 ×103, min-1. In addition, the “maximum reaction rate (Vm) of mTyr” value in data set [2] (compound concentration 10 μM) was 0.3424 ×103, min-1. The “maximum reaction rate (Vm) of mTyr” value in data set [2] (compound concentration 20 μM) is 0.2581 ×103, min-1. For the same molecule, in data set [1], the “Concentration at maximum inhibition rate” value turned out to be 50 µM. In data set [1] (setting [6]), the IC50 stood at 7.46 ± 0.9 µM.
Regarding `O=C(Oc1ccc(O)cc1)c1ccccc1` [Compound 3d, 4-hydroxyphenyl benzoate], the melting point fell in the range of 150 to 152 °C. In addition, the Inhibition type entry in data set [2] is listed as “competitive inhibition; also recorded: competitive inhibitors”. In addition, the “maximum reaction rate (Vm) of mTyr” value in data set [2] (compound concentration 5 μM) was 0.9216 ×103, min-1. For the same molecule, the “maximum reaction rate (Vm) of mTyr” value in data set [2] (compound concentration 10 μM) is on record as 0.9208 ×103, min-1. The “maximum reaction rate (Vm) of mTyr” value in data set [2] (compound concentration 20 μM) is recorded as 0.9209 ×103, min-1. Besides, the “Concentration at maximum inhibition rate” value in data set [1] worked out at 75 µM. Further, the IC50 in data set [1] (setting [6]) amounted to 20.5 ± 1.79 µM.
Take `Oc1ccc(O)cc1` [Hydroquinone, hydroquinone]: the “Concentration at maximum inhibition rate” value in data set [1] was 75 µM. Also, the IC50 in data set [1] (setting [6]) came to 22.78 ± 0.16 µM.
Molecule `O=C(Oc1ccc(O)cc1)c1ccc(F)cc1` [Compound 3e, 4-hydroxyphenyl 4-fluorobenzoate] yielded a melting point of 142 to 144 °C. In addition, the Inhibition type entry in data set [2] is on record as “competitive inhibition; also recorded: competitive inhibitors”. The “maximum reaction rate (Vm) of mTyr” value in data set [2] (compound concentration 5 μM) is listed as 1.474 ×103, min-1. Moreover, in data set [2] (compound concentration 10 μM), the “maximum reaction rate (Vm) of mTyr” value is on record as 1.470 ×103, min-1. Further, the “maximum reaction rate (Vm) of mTyr” value in data set [2] (compound concentration 20 μM) is 1.468 ×103, min-1. Moreover, the “Concentration at maximum inhibition rate” value in data set [1] was found to be 100 µM. For the same molecule, in data set [1] (setting [6]), the IC50 came out at 24.7 ± 3.04 µM.
For `O=C(CCc1ccccc1)Oc1ccc(OC(=O)CCc2ccccc2)cc1` [Compound 3g, 1,4-phenylene bis(3-phenylpropanoate)], the melting point is 128 to 130 °C.

One may read the IC50 as the concentration that inhibits the measured activity by half. In general, melting point refers to the temperature of the solid-liquid transition. The Ki is the equilibrium dissociation constant of an inhibitor or competing ligand from its target. Broadly, the inhibition is the change of the read-out against control, counted positive when it falls.

Values taken from publication PMC10870825, “Design, synthesis, and inhibitory activity of hydroquinone ester derivatives against mushroom tyrosinase” (RSC Advances, 2024).
